Test results reported in patent US20070093469A1, “Substituted azetidine compounds as cyclooxygenase-1-cyclooxygenase-2 inhibitors, and their preparation and use as medicaments” (LABORATORIOS DEL DR. ESTEVE S.A, priority 2004, published 2007).

Test system: rats
Test: Test for activity against edema in rats (carrageenin paw)
Assay type: in vivo
Conditions: Rattus norvegicus, oral route
Experimental: IV. Test for Activity Against Edema in Rats
The test for activity against edema is carried out as described in the publication of Winter et al., Proc. Soc. Exp. Biol. Med. 111, 544-547, (1962). The respective part of the description is hereby incorporated by reference and forms part of the present disclosure.
At the beginning of each experimental session the rats are deprived of food, and kept in cages within groups of 5 animals, the cages being fitted with a grating on the floor to prevent coprophagy. After a period of 24 hours without food, the animals are marked in a suitable way, weighed and hydrated via oral administration of 30 ml/kg body weight of tap water. Half an hour after the hydratisation, the compounds to be tested are administered via oral route, in an amount of 10 ml/kg body weight as a suspension in gum arabic at 5% (weight/volume). One hour after administration of the compounds the animals receive 0.1 ml of the inflammation causing agent (carrageenin 1% weight/volume, in sterile solution), injected via subplantar route into the right hind paw of the rats. Immediately after the carrageenin injection the volume of the injected paw is determined using a plethysmometer. The readings are expressed in ml. Readings of the volume of the paw are taken every hour after administration of the carrageenin for 7 hours.

Q: For `CC(C)(C)c1cc(C(=O)N2CC(O)C2)cc(C(C)(C)C)c1` [Example 2, (3,5-di-tert-butyl-phenyly)-(3-hydroxy-azetidin-1-yl)-methanone], which ED50 is on record?
A: 28 mg/kg

Q: `CC1C(O)CN1C(=O)c1cc(C(C)(C)C)c(O)c(C(C)(C)C)c1` (centres unmarked) [Example 4, (3,5-di-tert-butyl-4-hydroxy-phenyl)-(3-hydroxy-2-methyl-azetidin-1-yl)-methanone] was tested. Which ED50 did it give?
A: 31 mg/kg
